Laboratory results from US12377166B2, “Iron oxide nanoparticle for targeted chemo-immunotherapy” (University of Washington, priority 2021, dated 2025).

Columns and labels:
[1] = tested on: 4T1-luc tumors and organs; assay: DOX uptake in organs and tumors by confocal imaging; type: in vivo, BALB/c mice; conditions: 10 mg/kg DOX, single I.V., 48 h post-injection
Procedure: (§1) One week after inoculated with 4T1-luc cells, mice were injected with various agents intravenously. Forty-eight hours later, mice were euthanized and organs (heart, kidney, liver, lung, and spleen) and tumors were harvested and pre-served in 10% formalin for 48 h. Formalin-fixed tissue samples were first transferred from PBS to 70% ethanol and maintained for 2 hours, and then were transferred into 95% ethanol/5% methanol and maintained for an additional 2 hours. The samples were transferred in absolute ethanol and maintained for 1 hour, and then transferred again into 3 consecutive absolute xylene solutions and maintained in each for 1 hour. The samples were dehydrated and then placed in 2 consecutive melted paraffin baths and maintained in each for 2 hours. The tissue samples were then embedded in paraffin blocks and sectioned at 10 um thickness and loaded onto microscope slides. The loaded slides were heated to remove excess paraffin and adhere the samples to the slides. The samples were then deparaffinized by a series of xylene, ethanol and PBS baths.
The deparaffinized tissue samples were stained with DAPI and WGA-AF647 and mounted with Prolong Gold mounting medium. Samples were imaged with a Leica SP8X confocal microscope.

4T1-luc flank tumor = assay: Tumor growth inhibition in 4T1-luc flank tumor model; type: in vivo; conditions: for inhibition to tumor growth as compared to PBS-treated mice: three I.V. doses days 7, 10, 13, free DOX 5 mg/kg, NP DOX 10 mg/kg, Poly IC 18 mg/kg
Procedure: 6-Week-old female BALB/c mice were used. 4T1-luc cells were transfected to stably express luciferase so that bioluminescence imaging could be used to monitor tumor growth. 4T1-luc cells were trypsinized and suspended in PBS (10^7 cells/mL) and injected subcutaneously into the right flanks of mice (0.1 mL per mouse). Seven days after tumor inoculation, twenty-eight mice were randomly divided into 7 groups and each group was administered through intravenous injection with three doses of one of the following agents: PBS, IONPs, DOX, Poly IC, IONP-DOX-EBP, IONP-DOX-Poly IC, and IONP-DOX-Poly IC-EBP. […] For all NP agents, doses of DOX and Poly IC were 10 mg/kg and 18 mg/kg, respectively. Each mouse received an injection at day 7, 10 and 13 after tumor inoculation. The tumor size was measured by a caliper and the tumor volume was calculated by equation: V=width^2×length/2. The tumor size was measured every 3 days starting at day 4 after tumor cell inoculation. The body weight was also monitored after first agent administration.

4T1-luc orthotopic tumor = assay: Tumor growth, survival and metastasis in 4T1-luc primary (orthotopic) tumor model; type: in vivo, BALB/c mice
Procedure: 6-Week-old female BALB/c mice were used in this study. 4T1-luc cells were injected subcutaneously into the #9 mammary glands (10^6 cells in 0.05 mL PBS per mouse). Seven days after tumor inoculation, eighteen mice were randomly divided into 3 groups and each group was administered through intravenous injection with five doses of one of the following agents: PBS, DOX, and IONP-DOX-Poly IC-EBP. For free DOX, dose was 5 mg/kg per injection. For IONP-DOX-Poly IC-EBP, doses of DOX and Poly IC were 10 mg/kg and 18 mg/kg, respectively. Each mouse received an injection at day 7, 10, 13, 16 and 19 after tumor inoculation. The tumor size and body weight were monitored after first administration. Metastasis was monitored by IVIS imaging starting at day 22 after tumor inoculation. Mice were imaged at day 22, 25, 28, 31, 34, 37, 41, 45 and 50. Mice were euthanized following the approved animal protocol.

IL-12 [2] = assay: Serum/plasma IL-12 after I.V. injection (ELISA); type: in vivo, mice; conditions: for change of plasma IL-12 level: I.V., DOX 5 mg/kg, Poly IC 18 mg/kg, or NP (DOX 10 mg/kg, Poly IC 18 mg/kg)
Procedure: Six-week-old mice were administered with IONP-DOX-Poly IC-EBP-Cy5 through I.V. injection (dosage: 10 mg/kg DOX or equivalent). At 1, 2, 4, 8, 24 and 72 h post-injection, blood (5-25 μL) was collected from tail vein. The total amount of blood withdrawn from each mouse never exceeded one percent of the total body weight of the animal during the experiment. Whole blood was diluted with PBS and spun using a benchtop centrifuge for 2 min at 5000 g to separate the plasma. The diluted plasma was added to a 96-well black plate. The plate was scanned on a SpectraMax i3 plate reader (fluorescence mode) to measure Cy5 (ex, 646 nm; em, 676 nm) and DOX (ex, 500 nm; em, 600 nm) fluorescence signals. Three mice were used for each group.
The same conditions in pharmacokinetics study were used here except that blood was collected before agent administration and 2, 6.5 and 24 h after administration. IL-12 in plasma was assessed using an ELISA kit following the manufacturer's instruction and quantified with a SpectraMax i3 plate reader.

[3] = H&E histopathology of organs; type: in vivo, BALB/c mice; conditions: 10 mg/kg DOX equivalent, single I.V., 48 h
Procedure: as §1
The deparaffinized samples were stained with haemotoxylin and eosin, and mounted with Prolong Gold mounting medium. Microscopic images of tissues were acquired using a Nikon ECLIPSE TE 2000-S microscope.

[4] = tested on: bone marrow-derived dendritic cells (BMDCs); assay: Confocal imaging of cellular uptake into BMDCs; type: cell-based, BALB/c mice; conditions: 10 μg/mL Poly IC equivalent, 1 h, 37 °C
Procedure: BMDCs preparation. BMDC were generated from female BALB/c mice of 6-8 weeks old. The isolation of bone marrow cells was carried out following the method described in Madaan, A., et al., Journal of Biological Methods (2014) 1 (1). Cells were resuspended in RPMI-1640 supplemented with 10% FBS, 20 ng/mL recombinant murine GM-CSF (Shenandoah Biotechnology, Inc, Warwick, PA), and antibiotics (Pen Strep). Cells were allowed to differentiate for 7 d with one addition of fresh media at day 3. At day 7, cells were aspirated and counted for assays. Medium containing 10 ng/mL GM-CSF was used in assays.
Confocal microscopic imaging of cellular uptake. Cells were seeded onto a chamber slide (Nunc™ Lab-Tek™ II Chamber Slide™ System, Thermo Fisher Scientific Rockford, IL) with a density of 50,000 per well and incubated overnight. DOX, IONP-DOX-EBP-Cy5, or IONP-DOX-Poly IC-EBP-Cy5 was added into cells at a concentration of 10 μg/mL Poly IC-equivalency and incubated for 1 h. Cells were then washed and imaged with a Leica SP8X confocal laser scanning microscope.

4T1 cells [5] = assay: Alamar Blue cell viability assay; type: cell-based, murine; conditions: 72 h incubation
Procedure: Alamar Blue cell viability assay. Cells were seeded in a 96-well plate and incubated overnight. The following day, the medium was replaced with medium containing various agents. The cells were then incubated for 72 h. Cell viability was assessed using the Alamar Blue assay. Briefly, the medium was replaced with cell culture medium containing the reagent and allowed to incubate for 2 h. Following the incubation, a microplate reader (SpectraMax i3 multimode microplate reader, Molecular Devices) was used to determine the fluorescence intensity of the dye (550ex/590em). The fluorescence intensity from NP or free drug treated cells was compared to those from untreated control cells to determine percent viability. Each condition was triplicated.

4T1 cells [6] = assay: Cell uptake assay by flow cytometry; type: cell-based, murine; conditions: 2 h
Procedure: Cell uptake assay by flow cytometry. 4T1 cells were incubated with different agents for 2 h (10 μg/mL DOX or DOX equivalent NPs) at either 37° C. or 4° C., followed by washing with cold PBS for 3 times. Cells were then trypsinized and resuspended in cold PBS and analyzed by flow cytometry (FACSCanto II, BD Biosciences). Each condition was triplicated.

[7] = tested on: T cells (CD8, CD25, CD69); assay: Antigen-specific T cell response by flow cytometry in 4T1 tumor-bearing mice; type: in vivo, BALB/c mice; conditions: three days after treatment
Procedure: Twelve 6-week-old female BALB/c mice were used. 4T1 cells (10^5 cells per mouse) were inoculated subcutaneously into #9 mammary glands. The tumors were allowed to grow into palpable masses. Ten days after tumor inoculation, the 12 mice were separated into 4 treatment groups. Four treatments, including IONP-DOX-EBP-Poly IC (10 mg/kg DOX and Poly IC), IONP-DOX-EBP (10 mg/kg DOX), free Poly IC (10 mg/kg Poly IC) and PBS, were administered intravenously into four groups of mice bearing tumors (200 μL per mouse), respectively. Three days after administration, mice were euthanized, and tumors and spleens were harvested.
Harvested tumors and spleens were then sectioned, squeezed through 70 μm cell strainers and washed with PBS w/1% v/v ratio of FBS to obtain single cell suspensions. Cells were spun down with a centrifuge at 1500 rpm for 4 min and resuspended in 750 μL PBS w/1% v/v FBS. Anti-CD8-PE, anti-CD25-APC, and anti-CD69-FITC (Biolegend Inc.) solutions (3 μL each) were then mixed with 241 μL of PBS w/1% v/v FBS (total antibody solution volume for each single cell suspension was 250 μL). The cell/antibody suspension was then incubated in dark at room temperature for 30 mins. After incubation, 11 mL of PBS w/1% v/v FBS was added to all cell/antibody suspensions followed by centrifuging at 1500 rpm for 4 mins. Finally, all cell pellets were resuspended in 500 μL PBS w/1% v/v FBS and analyzed by flow cytometry (FACSCanto II).

IL-12 [8] = assay: IL-12 production by BMDCs (ELISA); type: cell-based, BALB/c mice; conditions: 10 μg/mL Poly IC equivalent, 24 h
Procedure: IL-12 production by ELISA assay. All conditions used were same as those for viability assay. Twenty-four hours after addition of agents into cell medium, supernatants were collected and IL-12 levels in medium were assessed by an ELISA assay kit following the manufacturer's protocol. Each condition was triplicated.

## COc1cccc2c1C(=O)c1c(O)c3c(c(O)c1C2=O)C[C@@](O)(C(=O)CO)C[C@@H]3O[C@H]1C[C@H](N)[C@H](O)[C@H](C)O1 [DOX, doxorubicin]
[1]
  DOX signal in liver: strong and evenly distributed fluorescence signal
  DOX signal in tumors: No observable DOX signal
4T1-luc flank tumor; free DOX 10 mg/kg I.V.
  time to mouse death from severe toxicity: less than 2 weeks
4T1-luc flank tumor
  inhibition to tumor growth as compared to PBS-treated mice: small
4T1-luc orthotopic tumor; five I.V. injections 3 days apart, free DOX 5 mg/kg, NP DOX 10 mg/kg, Poly IC 18 mg/kg
  median survival time: 32.5 days
4T1-luc orthotopic tumor; five I.V. injections, IVIS bioluminescence
  metastasis delayed to day after tumor inoculation: 31 days
IL-12 [2]
  change of plasma IL-12 level: did not increase the IL-12 level
[3]
  heart damage (H&E): severe heart damage
  pathological changes in organs other than heart (H&E): No pathological changes
[4]
  uptake and localisation of DOX in BMDCs: can enter BMDCs
4T1 cells [5]; DOX concentration
  IC50 (cell viability): about 0.36 μg/mL
4T1 cells [6]; 10 μg/mL DOX equivalent
  mean fluorescence intensity (MFI) of DOX, cellular uptake: 451
4T1 cells [6]; 4 °C vs 37 °C
  DOX taken up by cells at 4° C.: 10%

## polyinosinic:polycytidylic acid [Poly IC]
4T1-luc flank tumor
  inhibition to tumor growth as compared to PBS-treated mice: small
[7]
  CD8 cells in tumor: 8.63%
  CD25 cells in tumor: 7.91%
  CD69 cells in tumor: 3.57%
IL-12 [2]; I.V. injection
  time of peak IL-12 level post injection: 1.5 h
IL-12 [2]
  change of plasma IL-12 level: rapid elevation of the IL-12 level
IL-12 [8]
  production of IL-12 in cellular supernatants: equivalent production of IL 12
4T1 cells [5]
  toxicity to cells (viability): non-toxic to cells
